The experiment addresses T1, mutant B-RAF (Homo sapiens, UniProt P15056, V600E).
T1 construct: purchased Upstate (Charlottesville, Va.)
Briefly: RAF biochemical assay (MEK-1 phosphorylation, anti-phospho MEK1/2 detection). Conditions: for inhibition at 10 µM: read-out: Mutant B-RAF % inhibition. As to the method:
Materials: The RAF kinases and the anti-phospho MEK1/2 antibody were from Upstate (Charlottesville, Va.). The RAF substrate used was full length N-terminal GST-MEK-1, which was expressed in E. coli and purified in-house by HPLC. All proteins were aliquoted and stored at −80° C.
Compounds were serially diluted in assay buffer containing 1% DMSO and 20 μL of test compound at a concentration 3-fold more than the final concentration, and were added to a polypropylene V-well reaction plate. Vehicle control wells received buffer only with DMSO at equivalent concentrations to the test wells. […] These reaction plates were incubated at room temperature for 30 minutes. Capture of MEK-1 was initiated by transferring 50 μl of the reaction mixture to a Nunc Maxisorp™ microplate that is designed for non-specific protein capture. After 30 minute capture of MEK-1 at room temperature, this plate was washed with TBST (6×200 μL/well) to fully terminate the reaction. The plate was then blocked for 1 hour by the addition of 100 μl/well of Superblock™ in phosphate buffered saline (PBS) blocking reagent. Plate was again washed with TBST (6 times with 200 μL/well), followed by the addition of 70 μL/well of Upstate anti-phospho MEK 1/2 diluted 1:1000 in Pierce Superblock (PBS). After a 60 minute incubation, this plate was washed with TBST (6 times with 200 μL/well), and 70 μL of the secondary antibody (Pierce Alkaline Phosphatase tagged goat anti-rabbit) prepared at 1:4000 in Superblock, were added. After a 45 minute incubation at room temperature, the wells of the microplate were washed with TBST (6 times with 200 μL/well), and thereafter 100 μl/well of Attophos™ fluorescent alkaline phosphatase substrate was added according to the manufacturer's instructions (JBL Scientific).

Data on eleven compounds can be found in US7501430B2 (ArQule, Inc., priority 2006, dated 2009).

Like-named read-outs stand apart in the source and are kept apart here.

What is called inhibition is the change of the read-out against control, counted positive when it falls. The term IC50 denotes the concentration that gives 50% inhibition.

T1 sequence (P15056 whole entry V600E): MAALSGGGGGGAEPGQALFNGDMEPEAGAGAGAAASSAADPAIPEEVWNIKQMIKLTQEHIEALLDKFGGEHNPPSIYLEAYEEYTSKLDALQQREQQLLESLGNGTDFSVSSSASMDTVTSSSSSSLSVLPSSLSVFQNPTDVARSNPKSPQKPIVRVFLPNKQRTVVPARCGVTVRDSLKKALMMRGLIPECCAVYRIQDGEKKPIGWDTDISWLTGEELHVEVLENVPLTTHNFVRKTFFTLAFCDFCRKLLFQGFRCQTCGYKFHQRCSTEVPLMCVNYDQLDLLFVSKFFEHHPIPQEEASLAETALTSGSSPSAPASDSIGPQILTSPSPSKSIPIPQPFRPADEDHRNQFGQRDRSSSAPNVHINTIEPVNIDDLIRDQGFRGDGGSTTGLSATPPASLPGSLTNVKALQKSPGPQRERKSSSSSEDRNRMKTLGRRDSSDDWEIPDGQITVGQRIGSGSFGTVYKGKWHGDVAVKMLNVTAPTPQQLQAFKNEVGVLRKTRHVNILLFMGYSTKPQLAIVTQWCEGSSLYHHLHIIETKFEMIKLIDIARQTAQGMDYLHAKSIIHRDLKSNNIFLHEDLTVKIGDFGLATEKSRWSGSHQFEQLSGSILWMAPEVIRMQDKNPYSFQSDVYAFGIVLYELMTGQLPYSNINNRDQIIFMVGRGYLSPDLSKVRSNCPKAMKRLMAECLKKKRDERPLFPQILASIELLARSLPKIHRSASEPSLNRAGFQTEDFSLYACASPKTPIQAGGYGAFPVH

Consider `COc1cccc(S(=O)(=O)N2CCC[C@@H](Nc3nccc(-c4c(-c5ccc(F)cc5)nc5occn45)n3)C2)c1` [Example 57, 4-[6-(4-fluorophenyl)imi-dazo[2,1-b][1,3]oxazol-5-yl]-N-{(3R)-1-[(3-methoxy-phenyl)sulfonyl]piperidin-3-yl}pyrimidin-2-amine], for which the inhibition at 10 µM is 34%. `O=S(=O)(c1ccc(C(F)(F)F)cc1)N1CCC[C@@H](Nc2nccc(-c3c(-c4ccc(F)cc4)nc4occn34)n2)C1` [Example 58, 4-[6-(4-fluorophenyl)imi-dazo[2,1-b][1,3]oxazol-5-yl]-N-((3R)-1-{[4-(trifluoro-methyl)phenyl]sulfonyl}piperidin-3-yl)pyrimidin-2-amine] gave an IC50 of 403 nM. Regarding `O=C(O)c1ccc(S(=O)(=O)N2CCC[C@@H](Nc3nccc(-c4c(-c5ccc(F)cc5)nc5occn45)n3)C2)cc1` [Example 59, 4-{[(3R)-3-({4-[6-(4-fluorophenyl)imidazo[2,1-b][1,3]oxazol-5-yl]pyrimidin-2-yl}amino)piperidin-1-yl]sulfonyl}benzoic acid], the half-inhibitory concentration (IC50) (read-out: Mutant B-RAF IC50) turned out to be 576 nM. Take `O=S(=O)(c1ccc(Oc2ccccc2)cc1)N1CCC[C@@H](Nc2nccc(-c3c(-c4ccc(F)cc4)nc4occn34)n2)C1` [Example 60, 4-[6-(4-fluorophenyl)imi-dazo[2,1-b][1,3]oxazol-5-yl]-N-{(3R)-1-[(4-phenoxy-phenyl)sulfonyl]piperidin-3-yl}pyrimidin-2-amine]: the inhibition at 10 µM was determined as 15%. As for `COc1ccc(Cl)cc1S(=O)(=O)N1CCC[C@@H](Nc2nccc(-c3c(-c4ccc(F)cc4)nc4occn34)n2)C1` [Example 61, N-{(3R)-1-[(5-chloro-2-methoxyphenyl)sulfonyl]piperidin-3-yl}-4-[6-(4-fluorophenyl)imidazo[2,1-b][1,3]oxazol-5-yl]pyrimidin-2-amine], the inhibition at 10 µM (@ 10 uM) was found to be 37%. For `Fc1ccc(-c2nc3sccn3c2-c2ccnc(N[C@@H]3CCCNC3)n2)cc1` [Example 62], the inhibition at 10 µM amounted to 45%. As for `O=C(O)CCc1ccc(S(=O)(=O)N2CCC[C@@H](Nc3nccc(-c4c(-c5ccc(F)cc5)nc5occn45)n3)C2)cc1` [Example 63, 3-(4-{[(3R)-3-({4-[6-(4-fluorophenyl)imidazo[2,1-b][1,3]oxazol-5-yl]pyrimidin-2-yl}amino)piperidin-1-yl]sulfonyl}phenyl)propanoicacid], the IC50 (read-out: Mutant B-RAF IC50) came out at 441 nM. Take `CC(=O)Nc1nc(C)c(S(=O)(=O)N2CCC[C@@H](Nc3nccc(-c4c(-c5ccc(F)cc5)nc5occn45)n3)C2)s1` [Example 64, N-(5-{[(3R)-3-({4-[6-(4-fluorophenyl)imidazo[2,1-b][1,3]oxazol-5-yl]pyrimidin-2-yl}amino)piperidin-1-yl]sulfonyl}-4-methyl-1,3-thiazol-2-yl)acetamide]: the inhibition at 10 µM (@ 10 uM) is 58%. On to `Cc1nc(C)c(S(=O)(=O)N2CCC[C@@H](Nc3nccc(-c4c(-c5ccc(F)cc5)nc5occn45)n3)C2)s1` [Example 65, N-{(3R)-1-[(2,4-dimethyl-1,3-thiazol-5-yl)sulfonyl]piper-idin-3-yl}-4-[6-(4-fluorophenyl)imidazo[2,1-b][1,3]oxazol-5-yl]pyrimidin-2-amine], for which the inhibition at 10 µM (@ 10 uM) was found to be 42%. The same measure, in the same setting: to `Cc1nc(S(=O)(=O)N2CCC[C@@H](Nc3nccc(-c4c(-c5ccc(F)cc5)nc5occn45)n3)C2)cn1C` [Example 66, N-{(3R)-1-[(1,2-dimethyl-1H-imidazol-4-yl)sulfonyl]piper-idin-3-yl}-4-[6-(4-fluorophenyl)imidazo[2,1-b][1,3]oxazol-5-yl]pyrimidin-2-amine] belongs 70%; to `Cc1cc(NC(=O)N2CCC[C@@H](Nc3nccc(-c4c(-c5ccc(F)cc5)nc5occn45)n3)C2)c(C(F)(F)F)o1` [Example 67, (3R)-3-({4-[6-(4-fluorophenyl)imidazo[2,1-b][1,3]oxazol-5-yl]pyrimidin-2-yl}amino)-N-[5-methyl-2-(trifluoromethyl)-3-furyl]piperidine-1-carboxamide], 29%.
